Source: US7150974B1, “Parathyroid hormone receptor binding method” (The General Hospital Corporation, priority 1991, dated 2006)

How the values were obtained:
Type in all cases: binding
[1] = target: T1, human kidney PTH/PTHrP receptor (Homo sapiens, UniProt Q03431, L389Q); assay: Radioreceptor assay, COS-7 cells transiently expressing human kidney PTH/PTHrP receptor (HKrk); details: human versus rat receptor
T1 construct: The full-length human kidney PTH/PTHrP receptor cDNA, HKrk, was constructed using the BamHI/PvuII fragment of PCR clone #2 and HK-2; expressed in transfected cells; host or cells: COS-7 cells, transient (DEAE/Dextran), pcDNAI
T1 sequence (Q03431 27-593 L389Q): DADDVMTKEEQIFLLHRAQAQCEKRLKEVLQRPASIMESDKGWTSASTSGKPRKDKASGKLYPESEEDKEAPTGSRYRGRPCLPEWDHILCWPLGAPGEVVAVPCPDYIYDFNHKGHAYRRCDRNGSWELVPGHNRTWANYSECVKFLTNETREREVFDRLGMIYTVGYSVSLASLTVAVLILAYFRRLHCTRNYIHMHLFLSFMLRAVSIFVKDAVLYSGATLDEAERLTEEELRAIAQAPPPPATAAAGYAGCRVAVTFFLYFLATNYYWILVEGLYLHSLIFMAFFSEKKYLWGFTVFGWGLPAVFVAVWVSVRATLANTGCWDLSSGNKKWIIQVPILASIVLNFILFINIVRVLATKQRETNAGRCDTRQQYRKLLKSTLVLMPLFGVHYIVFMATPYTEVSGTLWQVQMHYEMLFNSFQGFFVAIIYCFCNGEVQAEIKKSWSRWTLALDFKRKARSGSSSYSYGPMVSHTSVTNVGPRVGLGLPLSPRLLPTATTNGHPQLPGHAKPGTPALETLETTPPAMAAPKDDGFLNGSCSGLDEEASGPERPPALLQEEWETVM
Protocol: (§1) In brief, the labeled peptide was dissolved in 0.1% trifluoracetic acid (TFA), applied to a C18 Sep-pak cartridge (Waters Associates, Inc., Milford, Mass.) and eluted with a solution of 60% acetonitrile in 0.1% TFA. After lyophilization, the radioligand then was applied to C18-μBondapak column (3.9 mm×30 cm. Waters Associates) and eluted over 30 min with a linear gradient of 30-50% acetonitrile-0.1% TFA at a flow rate of 2 ml/min.
(§2) COS-7 cells were grown in 15 cm plates in DMEM, 10% heat-inactivated […], 10 mg/L gentamycin until 80-90% confluent. Twenty-four hours after transfection by the DEAE/Dextran method (Sambrook et al., supra), with 1-2 μg of plasmid DNA, the cells were trypsinized and replated in multiwell plastic dishes (16 or 35 mm diameter, Costar, Cambridge, Mass.) at a cell concentration of 5×10^4 cells/cm^2). […] After continuing culture for another 48 h, radiorecepter assays were performed. The culture medium was replaced with buffer containing 50 mM Tris-HCL (pH 7.7), 100 mM NaCl, 2 mM CaCl2, 5 mM KCL, 0.5% heat-inactivated fetal bovine serum (GIBCO), and 5% heat-inactivated horse serum (KC Biological Inc., Lenexa, Kans.) immediately before studies were initiated.
(§3) Incubations were terminated by aspirating the buffer, and repeatedly (×3) washing the culture dishes, containing the adherent cells with chilled 0.9% NaCl solution, over a 15 sec period. Cell-bound radioactivity was recovered by the sequential addition (×3) of 1 N NaOH (200 μl) to each well. After 30 min at room temperature, the NaOH was transferred to a glass tube. A second and third extraction with 1 N NaOH (200 μl) were combined with the first, and the total radioactivity was counted in a γ-spectrometer (Packard Instruments, Downers Grove, Ill.).

[2] = target: T2, rat bone PTH/PTHrP receptor (Rattus norvegicus, UniProt P25961, E586G); assay: Radioreceptor assay, COS cells expressing rat bone PTH/PTHrP receptor (R15B); details: COS cells expressing R15B, FIG. 13
T2 construct: expressed in transfected cells; host or cells: COS / COS-7 cells, transient, plasmid R15B (pcDNA I)
T2 sequence (P25961 27-591 E586G): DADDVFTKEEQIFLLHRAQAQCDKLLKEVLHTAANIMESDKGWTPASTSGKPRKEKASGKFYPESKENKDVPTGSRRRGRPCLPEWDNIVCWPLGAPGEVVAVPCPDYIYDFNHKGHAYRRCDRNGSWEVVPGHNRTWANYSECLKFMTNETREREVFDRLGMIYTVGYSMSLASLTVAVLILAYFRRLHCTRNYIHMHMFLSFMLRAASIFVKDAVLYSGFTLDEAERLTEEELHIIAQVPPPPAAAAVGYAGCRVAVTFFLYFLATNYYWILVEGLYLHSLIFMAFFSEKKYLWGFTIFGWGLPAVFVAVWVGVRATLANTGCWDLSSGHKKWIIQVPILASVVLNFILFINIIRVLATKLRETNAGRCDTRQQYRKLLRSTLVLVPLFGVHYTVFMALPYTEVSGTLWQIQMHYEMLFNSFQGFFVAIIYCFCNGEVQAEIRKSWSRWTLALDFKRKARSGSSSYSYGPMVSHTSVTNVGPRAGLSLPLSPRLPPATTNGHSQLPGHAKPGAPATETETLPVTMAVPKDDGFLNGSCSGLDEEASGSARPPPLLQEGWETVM
Protocol: as §1, §2, §3

[3] = target: T3, opossum kidney PTH/PTHrP receptor clone, OK-H (Didelphis virginiana, UniProt P25107, I132F/S86P); assay: Radioreceptor assay, COS cells expressing OK-H; details: FIG. 9
T3 construct: expressed in transfected cells; host or cells: COS cells, transient, plasmid OK-H (pcDNA I)
T3 sequence (P25107 other isoform, or with tags, fused parts or gaps S86P/I132F): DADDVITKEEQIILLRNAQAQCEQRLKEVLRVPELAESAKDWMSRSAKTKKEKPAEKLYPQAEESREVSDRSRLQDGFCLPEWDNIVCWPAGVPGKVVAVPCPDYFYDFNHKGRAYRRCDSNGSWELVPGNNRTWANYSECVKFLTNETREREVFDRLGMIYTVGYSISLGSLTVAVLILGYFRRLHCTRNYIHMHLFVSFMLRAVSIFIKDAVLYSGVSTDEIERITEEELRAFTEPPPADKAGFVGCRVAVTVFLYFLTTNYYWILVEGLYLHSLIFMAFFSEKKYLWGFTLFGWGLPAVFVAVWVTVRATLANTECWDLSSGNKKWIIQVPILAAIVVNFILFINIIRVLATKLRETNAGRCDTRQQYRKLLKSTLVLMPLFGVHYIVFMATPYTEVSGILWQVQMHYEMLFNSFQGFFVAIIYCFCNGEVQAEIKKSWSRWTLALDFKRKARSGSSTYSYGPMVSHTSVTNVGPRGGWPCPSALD
Protocol: as §1, §2, §3

[4] = target: T4, opossum kidney PTH/PTHrp receptor clone, OK-O (Didelphis virginiana, UniProt P25107, I132F/S86P); assay: Radioreceptor assay, COS cells expressing OK-O; details: FIG. 11
T4 construct: expressed in transfected cells; host or cells: COS cells, transient, plasmid OK-O (pcDNA I)
T4 sequence (P25107 27-585 S86P/I132F): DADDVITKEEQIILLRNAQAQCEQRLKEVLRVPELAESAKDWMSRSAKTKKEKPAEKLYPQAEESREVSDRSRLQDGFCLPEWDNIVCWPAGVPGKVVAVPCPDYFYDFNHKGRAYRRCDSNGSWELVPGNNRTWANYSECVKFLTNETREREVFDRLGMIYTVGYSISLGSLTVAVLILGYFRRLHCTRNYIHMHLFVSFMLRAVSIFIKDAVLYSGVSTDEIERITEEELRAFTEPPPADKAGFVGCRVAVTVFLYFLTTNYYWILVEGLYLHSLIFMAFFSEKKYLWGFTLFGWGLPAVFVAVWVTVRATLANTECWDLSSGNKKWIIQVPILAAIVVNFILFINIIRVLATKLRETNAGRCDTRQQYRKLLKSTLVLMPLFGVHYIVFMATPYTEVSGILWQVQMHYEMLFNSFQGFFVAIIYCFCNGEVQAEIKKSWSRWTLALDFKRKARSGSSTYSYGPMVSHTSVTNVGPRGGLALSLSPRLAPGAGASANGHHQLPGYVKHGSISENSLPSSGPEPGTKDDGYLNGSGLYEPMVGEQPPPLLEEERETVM
Protocol: [Nle^8,Nle^18,Tyr^34]bPTH-(1-34)amide (NlePTH), and [Tyr^36]PTHrP(1-36)amide(PTHrP) were iodinated with Na^125I (carrier free, New England Nuclear, Boston, Mass.) as previously reported (Segre et al., J. Biol. Chem. 254: 6980, 1979), and purified by reverse-phase HPLC. In brief, the labeled peptide was dissolved in 0.1% trifluoracetic acid (TFA), applied to a C18 Sep-pak cartridge (Waters Associates, Inc., Milford, Mass.) and eluted with a solution of 60% acetonitrile in 0.1% TFA. After lyophilization, the radioligand then was applied to C18-μBondapak column (3.9 mm×30 cm. Waters Associates) and eluted over 30 min with a linear gradient of 30-50% acetonitrile-0.1% TFA at a flow rate of 2 ml/min. The radioligand eluted in two peaks; the first peak, which eluted at approximately 38% acetonitrile, was used in these studies because it gave higher total and specific bindings. The specific activity was 500±75 mCi/mg, which corresponds to an average iodine-peptide ratio of 1.
COS-7 cells were grown in 15 cm plates in DMEM, 10% heat-inactivated […], 10 mg/L gentamycin until 80-90% confluent. Twenty-four hours after transfection by the DEAE/Dextran method (Sambrook et al., supra), with 1-2 μg of plasmid DNA, the cells were trypsinized and replated in multiwell plastic dishes (16 or 35 mm diameter, Costar, Cambridge, Mass.) at a cell concentration of 5×10^4 cells/cm^2). Cell number increased only slightly after transfection. After continuing culture for another 48 h, radiorecepter assays were performed. […]
as §3, with “After 30 min at room temperature, the NaOH was transferred to a glass tube.” left out, “Ill.). […]” for “Ill.).”

[Nle^8,18, Tyr^34]bPTH(3-34)amide
fold higher affinity with expressed HKrK than with R15B [1]: 7 fold | inhibition of 125I-PTHrP binding by competitor [2]: inhibited | inhibition of 125I-PTHrP binding by competitor [3]: inhibited | inhibition of 125I-PTHrP binding by competitor [4]: inhibited

[Nle^8,18, Tyr^34]bPTH(7-34)amide
inhibition of 125I-PTHrP binding by competitor [2]: inhibited | inhibition of 125I-PTHrP binding by competitor [3]: inhibited | inhibition of 125I-PTHrP binding by competitor [4]: inhibited
